Calls of active or inactive are those of the source. No rule for the calls is given here.
System: CCRIS mutagenicity, Ames/micronucleus/aberration tests
Assay: CCRIS mutagenicity studies
Settings: Test System: AMES SALMONELLA TYPHIMURIUM

Row | SMILES | mutagenic call (Strain/Indicator: TA98, Metabolic Activation: HAMSTER, LIVER, S-9, AROCLOR 1254 (10%), Method: PREINCUBATION) | mutagenic call (Strain/Indicator: TA98, Metabolic Activation: NONE, Method: PREINCUBATION) | mutagenic call (Strain/Indicator: TA98, Metabolic Activation: RAT, LIVER, S-9, AROCLOR 1254 (10%), Method: PREINCUBATION) | mutagenic call (Strain/Indicator: TA100, Metabolic Activation: HAMSTER, LIVER, S-9, AROCLOR 1254 (10%), Method: PREINCUBATION) | mutagenic call (Strain/Indicator: TA100, Metabolic Activation: NONE, Method: PREINCUBATION) | mutagenic call (Strain/Indicator: TA100, Metabolic Activation: RAT, LIVER, S-9, AROCLOR 1254 (10%), Method: PREINCUBATION) | mutagenic call (Strain/Indicator: TA1535, Metabolic Activation: HAMSTER, LIVER, S-9, AROCLOR 1254 (10%), Method: PREINCUBATION) | mutagenic call (Strain/Indicator: TA1535, Metabolic Activation: NONE, Method: PREINCUBATION) | mutagenic call (Strain/Indicator: TA1535, Metabolic Activation: RAT, LIVER, S-9, AROCLOR 1254 (10%), Method: PREINCUBATION) | mutagenic call (Strain/Indicator: TA1537, Metabolic Activation: HAMSTER, LIVER, S-9, AROCLOR 1254 (10%), Method: PREINCUBATION) | mutagenic call (Strain/Indicator: TA1537, Metabolic Activation: NONE, Method: PREINCUBATION) | mutagenic call (Strain/Indicator: TA1537, Metabolic Activation: RAT, LIVER, S-9, AROCLOR 1254 (10%), Method: PREINCUBATION) | mutagenic call (Strain/Indicator: TA100, Metabolic Activation: NONE, Method: STANDARD PLATE)
1 | O[C@H]([C@H](O)[C@@H](O)CBr)[C@H](O)CBr | inactive; negative | inactive; negative | inactive; negative | active; positive | active; positive | active; positive | active; positive | active; positive | active; positive | inactive; negative | inactive; negative | inactive; negative | –
2 | C[C@@H](Br)C(=O)NCc1ccccc1 | – | – | – | – | – | – | – | – | – | – | – | – | active; positive

Reference: PubChem BioAssay AID1259407 (Chemical Carcinogenesis Research Information System (CCRIS), 2018)
